# Measured values published in patent US20190151320A1, “APPLICATION OF MAPK SIGNALING PATHWAY INHIBITOR IN MANUFACTURE OF DRUGS FOR DELAYING DEGENERATION OF DOPAMINERGIC NEURONS” (FUZHOU UNIVERSITY, priority 2016, published 2019).
# System: dopaminergic neurons in the PPL brain region
# Assay: Dopaminergic neuron morphology and quantity in PPL brain regions of PD model fruit flies after 30 days of drug feeding
# Type: in vivo, Drosophila melanogaster
# Conditions: fruit fly PD models (alpha-synuclein overexpression, Lrrk2 overexpression, Parkin mutation, Pink1 mutation); for effect on degenerative death/loss of dopaminergic neurons in the PPL brain region (morphology and quantity): 1 μg/mL in feed for 30 days
# Protocol: Animal models of PD caused by alpha-synuclein transgene overexpression, Lrrk2 transgene overexpression, Parkin gene mutation and Pink1 gene mutation were established in the four model groups. Each group includes 90 fruit flies and each group was further equally divided into three groups, drug-feeding groups and non-drug-feeding control group, for testing. Starting from imago at the age of 5 days, the drug-feeding group was continuously fed with 0.1 μg/mL, 1 μg/mL U0126 (U0126 is dissolved in 1% DMSO) for 30 days and the non-drug-feeding control group was fed with 1% DMSO as a solvent control. After 30 days of drug or control solvent feeding, the brains of fruit flies were dissected and the dopamine neurons were labeled by the whole-tissue immunostaining of the brains of the fruit flies with an anti-dopamine hydroxylase antibody. The morphology and quantity of the dopamine neurons in the PPL regions in the brains of the fruit flies were observed microscopically to determine the effect of U0126 on the dopaminergic neurons in the local brain regions.
# Animal models of PD caused by alpha-synuclein transgene overexpression, Lrrk2 transgene overexpression, Parkin gene mutation and Pink1 gene mutation were established in the four model groups. Each group includes 90 fruit flies and each group was further equally divided into 2 drug-feeding groups and 1 non-drug-feeding control group for testing. […] The morphology and quantity of the dopamine neurons in the PPL regions in the brains of the fruit flies were observed microscopically to determine the effect of PD0325901 on the dopaminergic neurons in the local brain regions of the fruit flies.
# Animal models of PD caused by alpha-synuclein transgene overexpression, Lrrk2 transgene overexpression, Parkin gene mutation and Pink1 gene mutation were established in the four model groups. […] The morphology and quantity of the dopamine neurons in the PPL regions in the brains of the fruit flies were observed microscopically to determine the effect of trametinib on the dopaminergic neurons in the local brain regions of the fruit flies.
Compound,effect on degenerative death of dopaminergic neurons in the PPL brain region (morphology and quantity) (16.24 μM/mL in feed for 30 days),effect on degenerative death/loss of dopaminergic neurons in the PPL brain region (morphology and quantity)
CC(=O)Nc1cccc(-n2c(=O)n(C3CC3)c(=O)c3c(Nc4ccc(I)cc4F)n(C)c(=O)c(C)c32)c1 [trametinib],can effectively reverse the degenerative death of the dopaminergic neurons,–
O=C(NOC[C@H](O)CO)c1ccc(F)c(F)c1Nc1ccc(I)cc1F [PD0325901],–,can effectively reverse the degenerative loss of the dopaminergic neurons
N#CC(=C(/N)Sc1ccccc1N)/C(C#N)=C(\N)Sc1ccccc1N [U0126],–,can effectively reverse the degenerative death of the dopaminergic neurons
